This is an account of results in article PMC9104802 (Cells, 2022).

Assay [1] deals with T1, hTERT (telomerase reverse transcriptase) (Homo sapiens, UniProt O14746).
T1 construct: gene TERT
The assay is described as follows: fluorescence polarization with His-hTRBD, BSA negative control; supported by TRAP inhibition of reconstituted GST-opTERT/hTERC and immunoprecipitated FLAG-hTERT telomerase (IC50 […]). The assay is classed as binding. In general terms: Polarisation of emitted light reports the rotation of a fluorescent probe.

The subject of assay [2] is Telo24 (human telomeric oligonucleotide, telomeric G-quadruplex) (DNA, G4) TTAGGGTTAGGGTTAGGGTTAGGG
The assay is described as follows: microscale thermophoresis (MST). The note with it: K+ 100 mM KCl (plus potassium phosphate); 10 mM K2HPO4/KH2PO4 pH 7.0; 30 min; 1 μM DNA; SC 0.15625-320 μM; apparent. A general note: Microscale thermophoresis detects binding through changes in fluorescence in a small temperature gradient.

T1 sequence (O14746 325-550 limits assumed): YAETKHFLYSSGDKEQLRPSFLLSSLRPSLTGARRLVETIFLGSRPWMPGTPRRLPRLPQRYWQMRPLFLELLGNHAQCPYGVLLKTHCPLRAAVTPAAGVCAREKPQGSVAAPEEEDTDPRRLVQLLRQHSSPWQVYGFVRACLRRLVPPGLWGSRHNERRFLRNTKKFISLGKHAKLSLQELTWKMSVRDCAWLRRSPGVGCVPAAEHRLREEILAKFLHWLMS

As to `C[n+]1cc2c3c(ccc2c2ccc4cc5c(cc4c21)OCO5)OCO3` [SC, Sanguinarine chloride], the EC50 (usually the concentration giving half of the maximal effect) in assay [1] stood at 24.8 µM; in assay [2] it was 120 µM.
